Where two headings read alike, the source gives them in different places. Where a SMILES comes first, the peptide text is derived from it. Where no end group is shown, it is not given here. Side-chain parts run from the residue outwards. [ ]: non-standard residue; d: D form. The star is where a group is joined. DOTA = O=C(O)CN1CCN(CC(=O)O)CCN(CC(=O)*)CCN(CC(=O)O)CC1; Palmitoyl = CCCCCCCCCCCCCCCC(=O)*; Myristoyl = CCCCCCCCCCCCCC(=O)*; Glu = glutamate linker
Legend:
[1] = tested on: CXCR4-tropic X4-HIV-1 (NL4-3); assay type: cell-based
Experimental: The activity of the peptides was estimated by different assays.
The X4-HIV inhibition assay is designed to measure the activity of the inventive peptides by their efficiency of blocking the infection of tissue culture cells by CXCR4-tropic HIV-1 variants.
HIV-1 inhibition assay. […] For infection of TZM-bl cells in presence of inhibitors, cells were seeded at a density of 1×10^5 cells/ml in 70 μl DMEM containing 2.5% FCS. Compounds were diluted in PBS and 10 μl were added. After 15 minutes of incubation cells were inoculated with 20 μl of diluted virus. Infection rates were determined three days later using Gal-Screen system (Applied Biosystems).

CXCR4 = biological target: T1, CXCR4 (Homo sapiens, UniProt P61073); assay: Antibody competition assay (12G5-assay) on SupT1 cells; assay type: binding
T1 construct: endogenous in cells; host or cells: SupT1 cells
T1 sequence (P61073 whole entry): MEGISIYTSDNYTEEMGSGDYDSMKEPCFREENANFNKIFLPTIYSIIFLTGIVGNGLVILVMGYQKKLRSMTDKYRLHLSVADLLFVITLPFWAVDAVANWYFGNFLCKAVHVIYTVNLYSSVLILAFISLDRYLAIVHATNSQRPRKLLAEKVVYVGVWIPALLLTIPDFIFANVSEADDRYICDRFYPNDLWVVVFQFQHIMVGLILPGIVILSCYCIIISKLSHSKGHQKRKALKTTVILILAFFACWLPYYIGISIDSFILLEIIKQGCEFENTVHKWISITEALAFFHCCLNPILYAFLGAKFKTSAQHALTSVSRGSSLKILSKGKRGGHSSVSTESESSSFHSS
Experimental: Second, the activity was tested by an antibody competition assay (FIG. 2). Values determined by the competition assay represent the potency of a compound to compete with an antibody that specifically binds to the binding pocket (ECL2) of CXCR4. […] To the right of the diagrams, an assignment of the curves to the tested peptides is explained. […] Three independent experiments were carried out for each peptide in each assay. The error bars refer to the standard deviation.
Antibody competition assay. Competition of compounds with antibody binding was performed on SupT1 cells. For that cells were washed in PBS containing 1% FCS and 50,000 cells were then seeded per well in a 96 V-well plate. Buffer was removed and plates were precooled at 4° C. Compounds were diluted in PBS and antibody (clone 12G5, APC labelled) was diluted in PBS containing 1% FCS. The antibody was used at a concentration closed to its determined Kd. 15 μl compounds were then added to the cells and 15 μl antibody immediately afterwards. Plates were incubated at 4° C. in the dark for 2 hours. Afterwards cells were washed twice with PBS containing 1% FCS and fixed with 2% PFA. Antibody binding was analyzed by flow cytometry (FACS CytoFLEX; Beckman Coulter®).

[2] = tested on: CXCL12-induced AKT signaling; assay: ERK/AKT signaling assay in SupT1 cells: AKT phosphorylation; assay type: cell-based; settings: 10 μM
Experimental: Third, the activity of the claimed EPI-X4 derivatives was tested by the effect on CXCL12/CXCR4-mediated ERK (Extracellular-signal Regulated Kinases) and AKT (a serine/threonine-protein kinase) signaling (FIG. 3). In that assay CXCR4 expressing cells are stimulated with the CXCR4 chemokine-ligand CXCL12, which subsequently leads to phosphorylation of ERK and AKT. Preincubation of cells with CXCR4-antagonists blocks those pathways. […] Two or three independent experiments were carried out in triplicates for each peptide in each assay. The error bars refer to the standard deviation.
ERK/AKT signaling assay. CXCL12 induced ERK and AKT phosphorylation was determined in SupT1 cells. For this, 100,000 cells were seeded per well in a 96-V well plate in 100 μl medium supplemented with 1% FCS. Cells were incubated for 2 hours at 37° C. before 5 μl of compounds were added. After 15 min incubation at 37° C. cells were stimulated by adding 5 μl CXCL12 diluted in PBS to reach a final concentration of 100 ng/ml. Cells were further incubated for 2 min before the reaction was stopped by adding 20 μl of 10% PFA. Cells were fixed for 15 min at 4° C. before PFA was removed and cells permeabilized by adding 100 μl ice cold methanol. After 15 min at 4° C. the methanol was removed, cells were washed and 30 μl primary antibody was added (phospho-p44/42 MAPK (Erk1) (Tyr204)/(Erk2) (Tyr187) (D1H6G) mouse mAb #5726; phosphor-Akt (Ser473) (193H12) rabbit mAb #4058 Cell Signaling) for 1 hour at 4° C. After the antibody was removed and cells were washed secondary antibody was added for 30 min. Cells were washed afterwards and subsequently analyzed by flow cytometry.

[3] = Functional stability assay in human plasma; settings: human, plasma
Experimental: Fourth, the stability of peptides in human plasma and whole human blood was tested (FIG. 4). The functional stability of EPI-X4 (SEQ ID NO.: 1) derivatives was screened using a CXCR4 antibody-based screening approach. Peptides were diluted in full human plasma or blood (>99%) and the functional activity was then measured after either 2 hours or 8 hours and compared to a sample that was not incubated in plasma or blood.
In this test, the peptides were incubated in human plasma for a certain time period.
Stability assay. Whole blood was collected from healthy donors in EDTA tubes and directly used or subsequently centrifuged for 15 min at 2,500×g to obtain plasma. Plasma from 6 donors was pooled and stored in aliquots at −80° C. Compounds were 200-fold diluted in human plasma or whole human blood to reach final concentrations of 20 μM. The t=0 sample was immediately taken and stored at −80° C. Plasma/compound or blood/compound mixture was then transferred to 37° C. and shook at 350 rpm. At given time points samples were taken and stored at −80° C.°. For measuring the functional activity of the plasma/peptide samples, the mixtures were thawed and diluted in ice cold PBS. 12G5-APC antibody competition was then performed as described before. For blood/peptide functional stability, samples were thawed and centrifuged at 14,000 rpm to remove cells and debris. The supernatant was then diluted in PBS and 12G5-antibody competition assay was performed. After the 2 hours incubation, the cells were washed and 50 μl of 1-step-Fix/Lyse solution (Thermo Fisher #00-5333-54) was added for 15 minutes at room temperature. Afterwards cells were washed again and analyzed for bound antibody.

Compound	anti-HIV-1 activity (in words) [1]	antibody competition / binding to CXCR4 (in words) (CXCR4)	other results
SC042: PVA-coupled peptide JM #21, average molecular mass 20 kDa (ILRWSRKLPCVS; also: PVA-coupled, average 20 kDa)	comparable activity as JM #21	comparable activity as JM #21	–
SC066: PEG-coupled JM #21, two peptide copies on one end of PEG, average molecular mass 20 kDa (ILRWSRKLPCVS; also: PEG-coupled, two peptide copies on one end, average 20 kDa)	comparable to the state of the art CXCR4-antagonist AMD3100 and JM #21	even higher activity than JM #21	–
JM #207: JM #122 with DOTA conjugated via an additional lysine coupled to the C-terminal amino acid of the peptide (ILRWSRKLPSVSK(DOTA))	suppressed HIV-1 infection with similar potency as the non-conjugated peptide	displaced the antibody as efficiently as the non-conjugated JM #21	–
CCCCCCCCCCCCCCCC(=O)NCCCC[C@H](NC(=O)[C@H](CCCCN)NC(=O)[C@H](CO)NC(=O)[C@H](Cc1c[nH]c2ccccc12)NC(=O)[C@H](CCCNC(=N)N)NC(=O)[C@@H](NC(=O)[C@@H](N)[C@@H](C)CC)C(C)C)C(=O)N[C@H](C(=O)N1CCC[C@H]1C(N)=O)C(C)C [JM #167, IVRWSKK(Pal)VP-NH2] (H-IVRWSKK(Palmitoyl)VP-NH2)	–	–	IC50 (CXCR4): 2 nM
c1cc(CN2CCCNCCNCCCNCC2)ccc1CN1CCCNCCNCCCNCC1 [AMD3100, reference compound]	–	–	reduction of CXCL12-induced AKT signaling [2]: about 60%
JM #206: JM #21 with DOTA conjugated via an additional lysine coupled to the C-terminal amino acid of the peptide (ILRWSRKLPCVSK(DOTA))	suppressed HIV-1 infection with similar potency as the non-conjugated peptide	displaced the antibody as efficiently as the non-conjugated JM #21	–
SC037: PVP-coupled peptide JM #21, average molecular mass 20 kDa (ILRWSRKLPCVS; also: PVP-coupled, average 20 kDa)	comparable activity as JM #21	comparable activity as JM #21	–
ILRWSRK(Glu-Myr)LPCVS (ILRWSRK([Glu-Myristoyl])LPCVS) [JM #204]	–	–	remaining activity in plasma in vivo 4 hours post injection (mouse, in vivo, iv, 4 h): lost
CC(C)C[C@H](NC(=O)[C@@H](NC(=O)[C@@H]1CCCN1C(=O)[C@@H](NC(=O)[C@H](CO)NC(=O)[C@@H](NC(=O)[C@H](CCC(N)=O)NC(=O)[C@@H]1CCCN1C(=O)[C@@H](NC(=O)[C@H](CCCCN)NC(=O)[C@H](CCCCN)NC(=O)[C@@H](NC(=O)[C@H](Cc1ccc(O)cc1)NC(=O)[C@H](CCCNC(=N)N)NC(=O)[C@@H](NC(=O)[C@@H](N)CC(C)C)C(C)C)[C@@H](C)O)C(C)C)C(C)C)[C@@H](C)O)[C@@H](C)O)C(=O)O [EPI-X4] (H-LVRYTKKVPQVSTPTL-OH; N-terminus and C-terminus assumed)	–	–	reduction of CXCL12-induced AKT signaling [2]: about 40%; half-life at 20 μM [3]: 17 min
CCCCCCCCCCCCCCCC(=O)NCCCC[C@H](NC(=O)[C@H](CCCNC(=N)N)NC(=O)[C@H](CO)NC(=O)[C@H](Cc1c[nH]c2ccccc12)NC(=O)[C@H](CCCNC(=N)N)NC(=O)[C@H](CCSC)NC(=O)[C@H](N)CC(C)C)C(=O)N[C@@H](CCSC)C(=O)N1CCC[C@H]1C(N)=O [JM #178, d-LMRWSRK(Pal)MP-NH2] (H-[dL]MRWSRK(Palmitoyl)MP-NH2; N-terminus assumed)	strongly increased anti-HIV-1 activity	–	IC50 (CXCR4): 2 nM
CCCCCCCCCCCCCCCC(=O)NCCCC[C@H](NC(=O)[C@H](CCCNC(=N)N)NC(=O)[C@H](CO)NC(=O)[C@H](Cc1c[nH]c2ccccc12)NC(=O)[C@H](CCCNC(=N)N)NC(=O)[C@H](CCSC)NC(=O)[C@H](N)CC(C)C)C(N)=O [JM #180, d-LMRWSRK(Pal)-NH2] (H-[dL]MRWSRK(Palmitoyl)-NH2)	strongly increased anti-HIV-1 activity	–	remaining activity in plasma in vivo 4 hours post injection (mice, i.v. tail vein, 4 hours post injection): 29%; remaining activity in plasma in vivo 8 hours post injection (mice, i.v. tail vein, 8 hours post injection): about 9%
SC029: PEG 20 kDa telechelic peptide conjugate, JM #21 copies coupled to different ends of the polymer (ILRWSRKLPCVS; also: PEG 20 kDa conjugate, peptide copies at both polymer ends, site not given here)	comparable to the state of the art CXCR4-antagonist AMD3100 and JM #21	–	remaining (relative) activity after 8 hours of plasma incubation ([3]; 8 h): 38%
SC069: DSPE-coupled derivative (via PEG), two peptide copies on one end (ILRWSRKLPCVS; also: DSPE-coupled via PEG, two peptide copies on one end)	higher activity than cholesterol-coupled SC043	higher activity than cholesterol-coupled SC043	–
SC001: DSPE-coupled derivative (via PEG), one peptide copy (ILRWSRKLPCVS; also: DSPE conjugate via PEG, one peptide copy, site not given here)	higher activity than cholesterol-coupled SC043	higher activity than cholesterol-coupled SC043	–

— patent publication US20230131339A1, “EPI-X4 BASED PEPTIDES AND DERIVATIVES THEREOF” (Universitaet Ulm, priority 2020, published 2023)
